In assay [1] the target is T1, AKT1 (Homo sapiens, UniProt P31749). Nature of the assay: FABS-NMR screening (3-FABS, 19F-labelled AKTide-like substrate) on AKT-1. Format: biochemical. More on the design: The active human Ser-Thr protein kinase AKT-1 Full Length was expressed as GST fusion protein; GST (cleaved yes); made in house; host or cells: insect cells. Conditions: 25 nM protein, 30 µM substrate, 1.5 mM ATP; read-out: AKT1 IC50 FABS NMR assay. The method, then: (§1) The biochemical functional NMR screening on the proteins kinase AKT-1 and PKA was performed using the 3-FABS (3-Fluorine Atoms for Biochemical Screening) technique developed by C. Dalvit and the NMR group in house (C. Dalvit et al 2003 J. Am. Chem. Soc. 125 (47): 14620).
(§2) The method require the use of a ^19F-labelled substrate. The same commercial peptide was used as substrate in both enzymatic reaction: the Tyr just before the phosphorilation site in the AKTide peptide was mutated in a 3-tryfluormethyl-Phe by Bachem.
(§3) The AKTide like peptide sequence is reported below: • H-Ala-Arg-Lys-Arg-Glu-Arg-Ala-Phe(3-CF3)-Ser-Phe-Gly-His-His-Ala-OH
The active human Ser-Thr protein kinase AKT-1 Full Length was expressed as GST fusion protein in insect cells and then the GST was cleaved with PreScission protease.
(§4) Reactions were performed in an end point format in eppendorf of 0.5 ml using the buffer solution 50mM Tris, pH 7.5, 5mM MgCl2, 1mM DTT, 8% D2O and 0.001% Triton-X-100; the final volume was of 560 µl. […] The spectra were recorded using the Varian Inova 600 MHz NMR spectrometer operating at a ^19F Larmor frequency of 564 MHz and using a 5mm probe with the inner coil tuned to ^19F and the outer coil tuned to H. The data were recorded without proton decoupling with a spectral width of 12000 Hz, an acquisition time of 0.8s and a relaxation delay of 2.8s. […]

The target of assay [2] is T2, AKT2 (Homo sapiens, UniProt P31751).
T2 construct: GST (N); made in house
Description: Biochemical assay for inhibitors of AKT2 kinase activity (33P trans-phosphorylation, Dowex resin). Conditions: 10 nM enzyme, 396 microM ATP, 8.5 microM peptide substrate. The method, then: (§5) The N-terminal GST fusion proteins used for the assays were prepared according to the methods described in Kumar, C. C. Biochem. Biophys. ACTA 2001, 1526, 257-268, and in Alessi, D. R.. Biochem. J. 1998 331, 299-308.
The in vitro kinase inhibition assay was conducted in the same way as described for AKT1. The kinase assay was run with a final enzyme concentration of 10 nM, in the presence of 396 microM ATP, 0.88 nM ^33P-γ-ATP and 8.5 microM substrate, a carboxy-terminally biotinylated peptide of the following sequence:
ARKRERTYSFGHHA-biotin. The peptide was obtained in batches of >95% peptide purity from PRIMM labs Inc. (Boston MA, USA).

Assay [3] addresses T1, AKT1. Nature of the assay: Biochemical assay for inhibitors of AKT1 kinase activity (33P trans-phosphorylation, Dowex resin). More on the design: GST (N); made in house. Conditions: 5 nM enzyme, 132 microM ATP, 30 microM peptide substrate, 60 minutes at room temperature. The method, then:
as §5
The inhibitory activity of putative kinase inhibitors and the potency of selected compounds were determined using a trans-phosphorylation assay.
A specific substrate was incubated with the kinase in appropriate buffer conditions in the presence of ATP traced with ^33P-γ-ATP (gamma phosphate-labeled, Redivue™
Code Number AH9968, 1000-3000Ci/mmole, Amersham Biosciences Piscataway, NJ, USA), optimal cofactors and test compound.
At the end of the phosphorylation reaction, more than 98% cold and radioactive ATP were captured by an excess of Dowex ion exchange resin. The resin was allowed to settle to the bottom of reaction wells by gravity. Supernatant, containing substrate peptide, was subsequently withdrawn and transferred into a counting plate, and radioactivity (corresponding to phosphate incorporated into peptide) was evaluated by β-counting.
Kinase buffer was composed of 50 mM TRIS pH 7.5 containing10 mM MgCl2, 1 mM DTT, 3 microM Na3VO4, and 0.2 mg/mL BSA. 3X KB is buffer of the same composition and pH as KB, but with three times the concentration of each component. […]

Assay [4] has as its system S6 ribosomal protein phosphorylation (Ser235/236) in MCF-7 cells. Nature of the assay: Inhibition of AKT induced S6 ribosomal protein phosphorylation in MCF7 (immunofluorescence, ArrayScan). Type of assay: cell-based. Conditions: Homo sapiens, compound treatment for 4 hour at 37°C, read-out: S6 phosphorylation (Ser235/236) in MCF7-cell IC50. The method, then:
MCF-7 cells (ATCC# HTB-22) were seeded in 96-well poly-lysine coated clear- and flat-bottomed black plates (Matrix Technologies Inc., Hudson, NH, USA), in E-MEM medium (MEM+ Earle's BSS + 2 mM glutamine + 0.1 mM non-essential amino acids) containing 10% of FCS at a density of 7000 cells/well, and incubated overnight at 37°C, 5% CO2, 100% relative humidity. After this incubation, cells were treated with increasing compound doses for 4 hour at 37°C. Afterwards, cells were fixed with PBS/3.7% paraformaldehyde for 15 min at room temperature, wash twice with 200 µl/well D-PBS and permeabilize with a D-PBS solution containing 0.1% Triton X-100 (Sigma-Aldrich, St. Louis, MO, USA) and 0.1% powder Milk for 15 minutes (staining solution). […] Fluorescence images in the DAPI and Cy5™ channels were automatically acquired, stored and analysed using a Cellomics ArrayScan™ IV instrument (Cellomics, Pittsburgh, USA); the Cellomics Cytotoxicity Algorithm was used to quantify cytoplasmic fluorescence associated with phospho-S6 (Cy5™ signal parameter: "Mean Lyso Mass-pH") for each cell in 10 fields/well, and eventually expressed as a mean population value. […]

The target of assay [5] is AKT3 (Homo sapiens, UniProt Q9Y243). Description: Biochemical assay for inhibitors of AKT3 kinase activity (33P trans-phosphorylation, Dowex resin). The method, then: The N-terminal GST fusion proteins used for the assays were prepared according to the methods described in Kumar, C. C. Biochem. Biophys. ACTA 2001, 1526, 257-268, and in Alessi, D. R.. Biochem. J. 1998 331, 299-308. The in vitro kinase inhibition assay was conducted in the same way as described for AKT1. The kinase assay was run with a final enzyme concentration of 1 nM, in the presence of 180 microM ATP, 0.88 nM ^33P-γ-ATP and 28.5 microM substrate, a carboxy-terminally biotinylated peptide of the following sequence: ARKRERTYSFGHHA-biotin. The peptide was obtained in batches of >95% peptide purity from PRIMM labs Inc. (Boston MA, USA).

In assay [6] the target is T3, PKAα (Homo sapiens, UniProt P17612).
T3 construct: polyHis; made in house; host or cells: E. coli
Description: FABS-NMR screening (3-FABS, 19F-labelled AKTide-like substrate) on PKA. Type of assay: biochemical. Conditions: 25 nM protein, 30 µM substrate, 150 µM ATP. The method, then: as §1, §2, §3
The active cycled AMP-dependent human protein kinase A PKA was expressed as polyHis-tag protein in E.Coli and purified by affinity column.
as §4

Each structure is given as a SMILES string. Read-outs that look alike come from different tables or passages of the source.

T1 sequence (P31749 whole entry, the tested form may be a part): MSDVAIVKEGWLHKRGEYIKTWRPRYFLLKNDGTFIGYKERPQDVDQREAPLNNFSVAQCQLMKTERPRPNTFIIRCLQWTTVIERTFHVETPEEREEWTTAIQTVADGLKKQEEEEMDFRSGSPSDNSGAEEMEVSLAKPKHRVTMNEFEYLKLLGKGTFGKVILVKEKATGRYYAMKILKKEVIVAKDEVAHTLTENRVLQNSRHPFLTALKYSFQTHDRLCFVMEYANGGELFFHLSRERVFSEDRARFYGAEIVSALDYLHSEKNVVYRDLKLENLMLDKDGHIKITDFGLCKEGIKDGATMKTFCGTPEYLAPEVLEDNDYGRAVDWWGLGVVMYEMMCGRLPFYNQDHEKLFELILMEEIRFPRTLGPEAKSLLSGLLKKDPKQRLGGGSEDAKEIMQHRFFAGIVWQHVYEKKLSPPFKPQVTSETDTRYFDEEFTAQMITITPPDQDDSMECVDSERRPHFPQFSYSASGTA
T2 sequence (P31751 whole entry, species assumed): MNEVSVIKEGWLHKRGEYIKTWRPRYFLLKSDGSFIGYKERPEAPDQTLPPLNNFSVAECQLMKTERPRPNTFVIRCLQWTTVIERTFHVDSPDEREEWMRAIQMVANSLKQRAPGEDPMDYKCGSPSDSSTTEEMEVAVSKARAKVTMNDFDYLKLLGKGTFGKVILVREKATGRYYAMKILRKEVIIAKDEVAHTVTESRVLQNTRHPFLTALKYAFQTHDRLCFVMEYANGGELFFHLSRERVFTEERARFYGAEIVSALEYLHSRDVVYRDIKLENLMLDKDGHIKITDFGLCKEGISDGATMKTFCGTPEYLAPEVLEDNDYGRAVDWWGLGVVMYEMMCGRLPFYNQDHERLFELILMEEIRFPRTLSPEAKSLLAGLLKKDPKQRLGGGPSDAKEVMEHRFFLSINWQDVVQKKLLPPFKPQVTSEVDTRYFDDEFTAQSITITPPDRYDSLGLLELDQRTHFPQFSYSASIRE
Sequence of AKT3 (Q9Y243 2-479): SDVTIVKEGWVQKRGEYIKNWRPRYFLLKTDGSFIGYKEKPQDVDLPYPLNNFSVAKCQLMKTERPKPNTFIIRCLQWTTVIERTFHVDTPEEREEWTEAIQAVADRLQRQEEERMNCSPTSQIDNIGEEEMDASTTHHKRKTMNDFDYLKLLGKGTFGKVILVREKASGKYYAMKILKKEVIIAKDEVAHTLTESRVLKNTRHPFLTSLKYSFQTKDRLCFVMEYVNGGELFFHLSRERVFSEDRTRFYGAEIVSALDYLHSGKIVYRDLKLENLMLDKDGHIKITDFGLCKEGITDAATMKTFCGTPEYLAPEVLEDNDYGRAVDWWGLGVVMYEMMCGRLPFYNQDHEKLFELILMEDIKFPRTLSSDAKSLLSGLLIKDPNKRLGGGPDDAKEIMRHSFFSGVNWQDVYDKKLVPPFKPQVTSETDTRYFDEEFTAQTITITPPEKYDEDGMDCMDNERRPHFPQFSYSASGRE

Consider `NC[C@H](Cc1ccccc1)NC(=O)/C=C/c1n[nH]c2ncccc12` [Compound 1, (E)-N-((S)-2-amino-1benzyl-ethyl)-3-(1H-pyrazolo[3,4-b]pyridin-3-yl)acrylamide tris(trifluoroacetate)], for which the IC50 came to 62 nM in assay [1]; 92 nM in assay [2]; 17 nM in assay [3]; 1350 nM in assay [4]; 19 nM in assay [5]; 25 nM in assay [6].

`CN1CCN(C[C@@H](NC(=O)/C(=C/c2n[nH]c3ncccc23)c2cn(C)c3ccc(Br)cc23)c2ccccc2)CC1` [Compound 10, (2E)-2-(5-bromo-1-methyl-1H-indol-3-yl)-N-[(1S)-2-(4-methylpiperazin-1-yl)-1-phenylethyl]-3-(1H-pyrazolo[3,4-b]pyridin-3-yl)acrylamide]: the IC50 in assay [1] stood at 62 nM; in assay [2] it was 786 nM; in assay [3], 149 nM; in assay [4], 16000 nM; in assay [5] (1 nM enzyme, 180 microM ATP, 28.5 microM peptide substrate, read-out: AKT3 IC50 Biochemical assay), 108 nM; in assay [6] it was 1900 nM.

These data come from patent publication EP1980561B1, “Substituted 1h-pyrazolo[3,4-b] pyridine derivatives active as kinase inhibitors” (NERVIANO MEDICAL SCIENCES S.R.L., priority 2007, dated 2008).
